Measurements as given in publication PMC10683025, “Discovery of a Hydroxylamine-Based Brain-Penetrant EGFR Inhibitor for Metastatic Non-Small-Cell Lung Cancer” (Journal of Medicinal Chemistry, 2023).
Read-outs that look alike come from different tables or passages of the source.

Tests used:
EGFRwt [1] = target: T1, EGFRwt (Homo sapiens, UniProt P00533); experiment: KINOMEScan KdELECT Kd determination; type: binding; details: wt; read-out: EGFR Kd
T1 construct: purchased Eurofins DiscoverX (contract assay)
T1 sequence (P00533 25-1210): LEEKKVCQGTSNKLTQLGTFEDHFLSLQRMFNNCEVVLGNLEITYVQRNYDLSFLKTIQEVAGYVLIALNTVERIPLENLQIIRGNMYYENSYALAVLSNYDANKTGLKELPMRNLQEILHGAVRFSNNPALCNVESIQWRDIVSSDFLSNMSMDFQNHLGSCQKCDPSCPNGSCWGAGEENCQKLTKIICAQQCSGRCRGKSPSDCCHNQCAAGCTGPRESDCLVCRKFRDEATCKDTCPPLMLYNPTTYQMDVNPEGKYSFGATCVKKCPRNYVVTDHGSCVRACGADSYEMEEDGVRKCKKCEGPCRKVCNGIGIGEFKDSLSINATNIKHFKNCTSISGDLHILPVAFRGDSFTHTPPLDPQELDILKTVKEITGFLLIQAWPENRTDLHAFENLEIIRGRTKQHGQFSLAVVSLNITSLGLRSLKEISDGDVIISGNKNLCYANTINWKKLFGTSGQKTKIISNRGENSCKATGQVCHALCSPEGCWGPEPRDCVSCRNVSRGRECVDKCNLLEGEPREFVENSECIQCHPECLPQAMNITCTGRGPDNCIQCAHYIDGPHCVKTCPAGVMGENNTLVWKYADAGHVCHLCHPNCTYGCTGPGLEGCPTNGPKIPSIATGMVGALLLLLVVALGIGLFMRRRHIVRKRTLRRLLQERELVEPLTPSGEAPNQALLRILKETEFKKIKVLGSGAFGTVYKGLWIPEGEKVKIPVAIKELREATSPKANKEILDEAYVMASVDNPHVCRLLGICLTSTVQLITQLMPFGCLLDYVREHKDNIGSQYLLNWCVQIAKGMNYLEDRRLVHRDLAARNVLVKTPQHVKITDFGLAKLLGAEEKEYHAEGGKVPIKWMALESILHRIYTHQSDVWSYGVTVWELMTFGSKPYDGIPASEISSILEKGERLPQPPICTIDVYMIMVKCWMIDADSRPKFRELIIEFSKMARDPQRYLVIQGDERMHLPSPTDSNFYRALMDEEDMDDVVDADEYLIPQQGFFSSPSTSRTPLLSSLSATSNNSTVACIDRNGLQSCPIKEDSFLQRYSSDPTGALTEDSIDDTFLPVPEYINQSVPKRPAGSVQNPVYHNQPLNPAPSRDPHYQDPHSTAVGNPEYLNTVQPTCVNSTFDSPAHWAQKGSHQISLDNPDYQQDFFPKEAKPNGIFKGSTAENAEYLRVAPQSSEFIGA
Procedure: (§2) In vitro kinase activity (inhibitor binding constants (Kd) and biochemical inhibition (IC50’s)) were assessed by Eurofins DiscoverX (Kd determinations) and Eurofins Cerep (biochemical IC50 determinations).

EGFRwt [2] = target: T1, EGFRwt; experiment: KinaseProfiler enzymatic radiometric assay; type: biochemical; details: wt, ATP 10 μM; read-out: EGFR IC50
Procedure: as §2

[3] = Metabolic stability in liver microsomes; type: in vitro ADME, human; details: for Remaining Percentage: human LM
Procedure: (§3) Microsome stability was assessed in duplicate (n = 2) in the presence and absence of nicotinamide adenine dinucleotide phosphate (NADPH) with liver microsomes (0.5 mg/mL) from human (BD Gentest) and Sprague-Dawley rats (BD Gentest). Compounds were incubated in liver microsomes at 1 μM and samples (30 μL) were taken at 0.5, 15, 30, 45, and 60 min time points for analysis by LC-MS/MS. Hepatocyte stability was assessed in duplicate (n = 2) at a working cell density of 0.5 × 10^6 cells/mL with hepatocytes from human (BiolVT), Sprague-Dawley rat (BiolVT), cynomolgus monkey (RILD) or beagle dog (BiolVT). […] The in vitro half-life and intrinsic clearances were determined as previously described.[76]
(§4) In vitro half-life (in vitro t1/2) was determined from the slope value in [drawing 1] where k was determined by linear regression of the natural logarithm of the remaining percentage of the parent drug vs the incubation time curve.

[4] = Metabolic stability in liver microsomes; type: in vitro ADME, Sprague-Dawley rat; details: for Remaining Percentage: rat LM
Procedure: as §3, §4

[5] = Metabolic stability in hepatocytes; type: in vitro ADME, human; details: for Remaining Percentages: human hepatocytes
Procedure: as §3, §4

Caco-2 permeability = type: in vitro ADME; details: human; for recovery at 2 h, 5 μM: Caco-2, Caco-2
Procedure: (§5) A 96-well HTS Transwell plate (Corning) was used for Caco-2 and MDCKII-MDR1 cell seeding. […] Plates were incubated at 37 °C for 2 h, and samples (50 μL) were taken at the beginning and end of the incubation in both the donor and acceptor wells with the assay run in duplicate (n = 2). Samples were analyzed by LC-MS/MS.
(§6) The efflux ratio was determined by using the following equation: [drawing 4] where Papp (B–A) indicates the apparent permeability in the basolateral to apical direction and Papp (A–B) indicates the apparent permeability in the apical to basolateral direction.

MDCKII-MDR1 permeability = type: in vitro ADME, canine; details: dog, MDCK-MDR1, MDCKII-MDR1
Procedure: as §5, §6

MDR1 = experiment: MDCKII-MDR1 permeability; type: in vitro ADME, canine; details: dog, MDCK-MDR1
Procedure: as §5, §6

[6] = Plasma protein binding by equilibrium dialysis; type: in vitro ADME
Procedure: (§1) Plasma protein binding and brain tissue binding were determined by Pharmaron, Inc. using the equilibrium dialysis method. […] Following incubation, the samples were analyzed by LC-MS/MS and the concentrations of the compounds were determined in the buffer and plasma solution chambers.

[7] = Brain tissue binding by equilibrium dialysis; type: in vitro ADME; details: rat
Procedure: as §1

hERG = target: T2, hERG (Homo sapiens, UniProt Q12809); experiment: hERG manual patch clamp in HEK293; type: cell-based
T2 construct: host or cells: HEK293
T2 sequence (Q12809 whole entry): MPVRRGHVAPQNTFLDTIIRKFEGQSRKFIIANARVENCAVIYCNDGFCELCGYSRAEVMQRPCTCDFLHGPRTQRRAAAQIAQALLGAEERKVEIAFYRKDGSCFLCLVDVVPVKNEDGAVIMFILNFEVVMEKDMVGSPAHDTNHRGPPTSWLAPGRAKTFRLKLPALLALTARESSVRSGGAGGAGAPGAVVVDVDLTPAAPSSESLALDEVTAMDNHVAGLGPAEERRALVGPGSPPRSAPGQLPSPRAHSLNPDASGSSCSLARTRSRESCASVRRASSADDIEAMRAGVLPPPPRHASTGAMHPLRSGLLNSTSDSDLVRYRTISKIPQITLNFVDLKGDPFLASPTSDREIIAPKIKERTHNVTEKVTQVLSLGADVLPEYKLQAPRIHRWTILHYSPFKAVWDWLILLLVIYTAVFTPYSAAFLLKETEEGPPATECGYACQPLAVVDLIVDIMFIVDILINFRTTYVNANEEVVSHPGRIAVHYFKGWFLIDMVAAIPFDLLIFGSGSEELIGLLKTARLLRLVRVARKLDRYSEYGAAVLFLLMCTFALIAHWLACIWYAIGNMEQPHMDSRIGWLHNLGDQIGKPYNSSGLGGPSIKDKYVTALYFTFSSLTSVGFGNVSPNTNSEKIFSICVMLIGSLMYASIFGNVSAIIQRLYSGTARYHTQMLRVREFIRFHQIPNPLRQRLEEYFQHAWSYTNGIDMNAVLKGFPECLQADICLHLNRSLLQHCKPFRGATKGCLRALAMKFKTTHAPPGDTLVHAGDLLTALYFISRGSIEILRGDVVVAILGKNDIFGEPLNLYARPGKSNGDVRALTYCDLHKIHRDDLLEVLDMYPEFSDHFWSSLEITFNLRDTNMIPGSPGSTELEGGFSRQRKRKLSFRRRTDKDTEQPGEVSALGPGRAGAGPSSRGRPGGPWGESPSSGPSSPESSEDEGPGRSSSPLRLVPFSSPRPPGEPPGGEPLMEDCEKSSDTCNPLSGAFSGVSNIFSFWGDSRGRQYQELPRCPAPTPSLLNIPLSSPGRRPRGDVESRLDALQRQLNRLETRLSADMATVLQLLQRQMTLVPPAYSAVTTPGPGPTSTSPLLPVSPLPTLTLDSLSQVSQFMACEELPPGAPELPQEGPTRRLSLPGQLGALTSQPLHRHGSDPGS

Pharmacokinetic study = type: in vivo, Sprague-Dawley rats
Procedure: Animal experiments were performed at Pharmaron, Inc. and animal use was approved by Pharmaron’s Institutional Animal Care and Use Committee (IACUC) in Pharmaron (Pharmaron IACUC, Protocol #PK-M-07182022, #PK-R-06012022, and #ON-CELL-XEN-06012022) following the guidance of AAALAC. Six- to eight-week-old male Sprague-Dawley rats (approximately 200–300 g) obtained from Si Bei Fu Laboratory Animal Technology Co., six- to eight-week-old male CD1 mice (approximately 20–30 g) obtained from Si Bei Fu Laboratory Animal Technology Co., and six- to eight-week-old female BALB/c nude mice (approximately 20–30 g) obtained from Si Bei Fu Laboratory Animal Technology Co., were used in the pharmacokinetic studies. Six- to eight-week-old female BALB/c nude mice (approximately 18–22 g) obtained from Beijing Anikeeper Biotech Co., Ltd. were used in the intracranial PDX study. Animals were housed at 20–25 °C with humidity ranging from 40 to 70% relative humidity, were exposed to 12 h light and dark cycles, and were supplied with food and water ab libitum.
Approximately 0.03 mL of blood was collected from the dorsal metatarsal vein (in the case of CD1 mice), 0.03 mL of blood from the orbit vein (in the case of BALB/c nude mice), or 0.2 mL of blood from the jugular vein (in the case of Sprague-Dawley rats) at each time point. Blood at each sampling point was transferred into a plastic micro centrifuge tube containing K2-EDTA, and collection tubes with blood samples and anticoagulant were inverted several times for proper mixing of the tube contents and placed on ice prior to centrifugation for plasma. Blood samples were centrifuged at 4 °C, 4000g for 5 min to obtain plasma. Samples were stored in a freezer at −75 °C prior to analysis. Concentrations of test articles in the plasma samples were determined using LC-MS/MS and WinNonlin 8.3 (Phoenix) was used for pharmacokinetic calculations. The values obtained were plotted on GraphPad Prism software and are presented as mean ± SD.

EGFRL858R [8] = target: T3, EGFRL858R (Homo sapiens, UniProt P00533, L858R); experiment: KINOMEScan KdELECT Kd determination; type: binding; design: purchased Eurofins DiscoverX (contract assay); details: L858R
T3 sequence (P00533 25-1210 L858R): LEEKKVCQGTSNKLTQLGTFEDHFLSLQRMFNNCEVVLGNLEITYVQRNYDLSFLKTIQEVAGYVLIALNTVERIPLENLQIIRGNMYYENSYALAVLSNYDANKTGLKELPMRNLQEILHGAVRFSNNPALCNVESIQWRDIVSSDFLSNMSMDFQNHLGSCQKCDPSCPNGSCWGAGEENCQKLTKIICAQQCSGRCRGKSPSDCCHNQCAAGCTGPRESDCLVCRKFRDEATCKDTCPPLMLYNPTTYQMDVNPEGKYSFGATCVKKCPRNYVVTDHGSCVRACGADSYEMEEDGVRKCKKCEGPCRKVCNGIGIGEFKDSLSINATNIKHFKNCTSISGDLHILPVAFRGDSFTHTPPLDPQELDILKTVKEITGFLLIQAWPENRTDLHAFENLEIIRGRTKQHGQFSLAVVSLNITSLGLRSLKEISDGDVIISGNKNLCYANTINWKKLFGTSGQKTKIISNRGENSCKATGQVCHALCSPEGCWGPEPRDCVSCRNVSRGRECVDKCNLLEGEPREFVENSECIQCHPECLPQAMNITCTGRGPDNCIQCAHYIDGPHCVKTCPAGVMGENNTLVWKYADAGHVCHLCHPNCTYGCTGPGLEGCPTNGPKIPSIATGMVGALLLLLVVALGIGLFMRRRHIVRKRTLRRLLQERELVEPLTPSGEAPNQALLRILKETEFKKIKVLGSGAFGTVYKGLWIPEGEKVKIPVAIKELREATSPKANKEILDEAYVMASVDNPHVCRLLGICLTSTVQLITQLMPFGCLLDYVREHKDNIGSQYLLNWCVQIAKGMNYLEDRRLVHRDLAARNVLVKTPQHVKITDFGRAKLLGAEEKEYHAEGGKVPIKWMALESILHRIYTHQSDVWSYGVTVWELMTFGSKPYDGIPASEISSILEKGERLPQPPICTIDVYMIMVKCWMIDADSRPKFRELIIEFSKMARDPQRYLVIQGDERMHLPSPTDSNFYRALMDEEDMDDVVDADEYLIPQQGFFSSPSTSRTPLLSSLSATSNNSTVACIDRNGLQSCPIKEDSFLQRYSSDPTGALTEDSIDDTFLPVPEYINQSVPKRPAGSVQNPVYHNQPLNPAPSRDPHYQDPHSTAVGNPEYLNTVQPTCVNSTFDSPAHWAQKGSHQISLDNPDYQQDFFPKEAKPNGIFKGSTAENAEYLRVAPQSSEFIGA
Procedure: as §2

EGFRL858R [9] = target: T3, EGFRL858R; experiment: KinaseProfiler enzymatic radiometric assay; type: biochemical; design: purchased Eurofins Cerep (KinaseProfiler, contract assay); details: ATP 10 μM, read-out: EGFR IC50
Procedure: as §2

[10] = Sprague-Dawley, rat, rat plasma
[11] = male, Sprague-Dawley, plasma, Rat 2 mg/kg (IV)
[12] = male, Sprague-Dawley, plasma, Rat 20 mg/kg (PO)
[13] = male, Sprague-Dawley, plasma, rat, 1 mg/kg IV and 5 mg/kg PO dosing (route of value not stated)

## COc1cc2ncnc(Nc3cccc(Cl)c3F)c2cc1OCCON1CCN(C)CC1 [Compound 9, N-(3-Chloro-2-fluorophenyl)-7-methoxy-6-(2-((4-methylpiperazin-1-yl)oxy)ethoxy)quinazolin-4-amine]
EGFRwt [1]
  Kd: < 0.2 nM
EGFRwt [2]
  IC50: 3 nM
[3]; +Cofactors, 15 min
  Remaining Percentage: 69.65%
[3]; +Cofactors, 30 min
  Remaining Percentage: 46.26%
[3]; +Cofactors, 45 min
  Remaining Percentage: 31.49%
[3]; +Cofactors, 60 min
  Remaining Percentage: 26.65%
[3]; -Cofactors, 60 min
  Remaining Percentage: 109.86%
[3]; human, liver microsomes, read-out: LM t1/2
  half-life at 1 h, 1 µM: 0.5 h
[3]; human, liver microsomes, read-out: LMClint
  microsomal CLint at 1 h, 1 µM: 46 µL/min/mg
[4]; Sprague-Dawley, rat, liver microsomes, read-out: LM t1/2
  half-life at 1 h, 1 µM: 9.5 min
[4]; Sprague-Dawley, rat, liver microsomes, read-out: LMClint
  microsomal CLint at 1 h, 1 µM: 146 µL/min/mg
[4]; +Cofactors, 15 min
  Remaining Percentage: 34.07%
[4]; +Cofactors, 30 min
  Remaining Percentage: 11.66%
[4]; +Cofactors, 45 min
  Remaining Percentage: 6.01%
[4]; +Cofactors, 60 min
  Remaining Percentage: 2.50%
[4]; -Cofactors, 60 min
  Remaining Percentage: 113.38%
[5]; 15 min
  Remaining Percentages: 98.94%
[5]; 30 min
  Remaining Percentages: 89.67%
[5]; 60 min
  Remaining Percentages: 75.36%
[5]; 90 min
  Remaining Percentages: 58.28%
[5]; 120 min
  Remaining Percentages: 52.37%
[5]; human, hepatocytes
  hepatocyte CLint at 2 h, 1 µM: 12 µL/min/1e6 cells
[5]; human, hepatocytes, read-out: HEP t1/2
  half-life at 2 h, 1 µM: 1.95 h
Caco-2 permeability; Caco-2
  efflux ratio at 2 h, 5 µM: 1.3
  efflux ratio at 2 h, 5 μM: 1.32
Caco-2 permeability; read-out: Recovery% (AP-BL)
  recovery at 2 h, 5 μM: 53.9%
Caco-2 permeability; read-out: Recovery% (BL-AP)
  recovery at 2 h, 5 μM: 73.5%
Caco-2 permeability; Caco-2, 5 μM, 2 h
  Papp A→B at 2 h, 5 µM: 6.5 ×10⁻⁶ cm/s
  Papp A→B at 2 h, 5 μM: 6.52 ×10⁻⁶ cm/s
  Papp B→A at 2 h, 5 µM: 8.6 ×10⁻⁶ cm/s
  Papp B→A at 2 h, 5 μM: 8.61 ×10⁻⁶ cm/s
MDCKII-MDR1 permeability; read-out: Recovery% (AP-BL)
  recovery at 2 h, 1 μM: 68.6%
MDCKII-MDR1 permeability; read-out: Recovery% (BL-AP)
  recovery at 2 h, 1 μM: 90%
MDR1
  efflux ratio at 2 h, 1 µM: 0.9
  efflux ratio at 2 h, 1 μM: 0.92
MDR1; 1 μM, 2 h
  Papp A→B at 2 h, 1 µM: 9.8 ×10⁻⁶ cm/s
  Papp A→B at 2 h, 1 μM: 9.82 ×10⁻⁶ cm/s
  Papp B→A at 2 h, 1 µM: 9.1 ×10⁻⁶ cm/s
  Papp B→A at 2 h, 1 μM: 9.06 ×10⁻⁶ cm/s
[6]; Sprague-Dawley, rat, plasma, 5 μM, read-out: fu,plasma% / %Unbound
  fraction unbound at 6 h, 5 μM: 0.128
[6]; [10]
  recovery at 6 h, 5 μM: 106%
  remaining at 6 h, 5 μM: 99.6%
[6]; Sprague-Dawley, rat, rat plasma, read-out: %Bound (converted)
  fraction unbound at 6 h, 5 μM: 0.128
[6]; human, human plasma
  recovery at 6 h, 5 μM: 101%
  remaining at 6 h, 5 μM: 102%
[6]; human, human plasma, read-out: fu,plasma% / %Unbound (converted)
  fraction unbound at 6 h, 5 μM: 0.0442
[6]; plasma, human, 5 μM, read-out: fu,plasma% / %Unbound
  fraction unbound at 6 h, 5 µM: 0.044
[6]; plasma, human, 5 μM, read-out: fu,plasma% / %Unbound (converted)
  fraction unbound at 6 h, 5 μM: 0.0442
[6]; rat, 5 μM
  fu,plasma% / %Unbound: 12.75%
[7]; Sprague-Dawley (SD), rat brain homogenate
  recovery at 6 h, 5 μM: 102%
[7]; Sprague-Dawley, brain homogenate, read-out: fu,brain% / %Unboundbrain
  fraction unbound at 6 h, 5 μM: 0.0447
[7]; Sprague-Dawley, rat brain homogenate
  remaining at 6 h, 5 μM: 94.7%
[7]; Sprague-Dawley, rat brain homogenate, read-out: %Boundbrain (converted)
  fraction unbound at 6 h, 5 μM: 0.0447
[7]; brain homogenate, read-out: fu,brain% / %Unboundbrain
  fraction unbound at 6 h, 5 µM: 0.045
hERG; 1 μM
  %hERG inhibition: 17%
hERG; human, HEK293 cells stably transfected with hERG, HEK 293 (+hERG), manual patch clamp
  IC50: 6480 nM
Pharmacokinetic study; Sprague-Dawley rats at the tested PK doses
  adverse events or signs of toxicity: No adverse events or signs of toxicity were observed
Pharmacokinetic study; [11]
  clearance at 24 h: 59.6 ± 22.2 mL/min/kg
  half-life at 24 h: 2.4 ± 1.07 h
Pharmacokinetic study; male, Sprague-Dawley, plasma, Rat 2 mg/kg (IV), read-out: Vss
  Vd at 24 h: 6.67 L/kg
Pharmacokinetic study; [12]
  Cmax at 24 h: 653 ± 106 nM
  Tmax at 24 h: 2 h
  bioavailability at 24 h: 64%
  half-life at 24 h: 2.37 h
Pharmacokinetic study; [13]
  AUC(0-inf) at 24 h: 279 ng·h/mL
  half-life at 24 h: 2.29 h
Pharmacokinetic study; male, Sprague-Dawley, plasma, rat, 20 mg/kg PO
  AUC(0-inf): 3910 ng·h/mL
EGFRL858R [8]
  Kd: < 0.2 nM
EGFRL858R [9]
  IC50: 2 nM
